From patent US10849865B2, “Method of reducing neuronal cell death with haloalkylamines” (THE UNIVERSITY OF MONTANA, priority 2013, dated 2020)
Entries after “also recorded” stand apart in the source; their conditions may differ.

Key:
[1] = tested on: rat hippocampal slice cultures exposed to oxygen-glucose deprivation (OGD); assay: Rat hippocampal slice culture oxygen-glucose deprivation (RHSC-OGD) model, propidium iodide staining; type: cell-based
Experimental: All experimental animal procedures were approved by the University of Montana Institutional Animal Care and Use Committee in accordance with National Institutes of Health guide for the care and use of Laboratory animals (NIH Publications No. 8023). Hippocampal slice cultures were prepared from the brains of 7-day-old Sprague-Dawley rat pups as previously described (Selkirk et al., 2005, Eur J Neur 21:2291). After 7 days in culture, slices were exposed to oxygen-glucose deprivation (OGD). A glucose free balanced salt solution (BSS) composed of 120 mM NaCl, 5 mM KCl, 1.25 mM NaH2PO4, 2 mM MgSO4, 2 mM CaCl2, 25 mM NaHCO3, 20 mM HEPES, 25 mM sucrose; pH 7.3 was bubbled for one hour with 5% CO2/95% N2 at 10 L/hour. Slices were washed 6 times in deoxygenated SBSS to remove residual glucose, transferred into deoxygenated SBSS, and placed in a 37° C. chamber (Pro-Ox) with an oxygen feedback sensor that maintained gas levels at 0.1% O2, 5% CO2, 94.4% Nitrogen for 60 min. After OGD, the slices were immediately transferred back into pre-warmed Neurobasal media (containing B27 without anti-oxidants) under normal oxygen conditions. […] Neuronal damage was determined by staining slices with propidium iodide (PI; Molecular Probes, Eugene, Oreg.) and quantifying the relative fluorescence intensity (excitation 540/emission 630) using ImagePro Plus software (Media Cybernetics, Silver Springs, Md.). Propidium iodide […] was added to the media at a concentration of 2 μM (Noraberg et al., 1999, Brain Research Protocols 3:278), 4 hours prior to OGD. Images were taken of the hippocampal slices prior to OGD to establish baseline fluorescence. After OGD, slices were placed in normal media containing 2 μM PI and imaged again at 24 hours post-OGD using fluorescence optics with an Olympus IMT-2 microscope and a Hamamatsu camera. The total fluorescent intensity in each slice was determined using ImagePro Plus software (Media Cybernetics, Silver Springs, Md.) and all values were expressed as the percent change from untreated slices exposed to OGD.

[2] = tested on: rat lateral fluid percussion injury (LFP) model of severe TBI; assay: Neurological severity scoring (NSS) after severe TBI (lateral fluid percussion); type: in vivo
Experimental: Assessments were conducted on days 1, 7, 14, 21, and 30 by a blinded observer. Animals were scored from 0-16 with 0 indicating no impairment, and 16 indicating maximal impairment. Scoring criteria for a severe TBI was 16-10, a moderate TBI was 9-5 and a mild TBI was 4-1. Animals scoring and NSS of 9 or less on day 1 were identified as having a moderate/mild injury and were excluded.
(§1) We selected the test dose for phenoxybenzamine based on current FDA approved levels. […] Assuming a typical adult weighs 70 kg, this represents 1.7 mg/kg body weight. Therefore, we selected a slightly lower, single, intravenous dose of 1 mg/kg body weight. This dose was administered at the clinically relevant time point of 8 hours after severe TBI. Therapeutic effectiveness was determined based on behavioral and cognitive outcomes.

[3] = tested on: rat lateral fluid percussion injury (LFP) model of severe TBI; assay: Foot fault assessment after severe TBI (lateral fluid percussion); type: in vivo
Experimental: Briefly, rats were set on an elevated grid. With each weight-bearing step, the paw may fall or slip off the wire grid. Each time the left forelimb (affected by damage to the right hemisphere) missed a placement on the wire rack it was recorded as a foot fault. The total number of steps (movement of each forelimb) that the rat used to cross the grid was counted, and the total numbers of foot faults for each forelimb was recorded.
as §1

[4] = tested on: rat lateral fluid percussion injury (LFP) model of severe TBI; assay: Morris water maze (MWM) cognitive function after severe TBI; type: in vivo
Experimental: The Morris water maze (MWM) was used to assess the impact of phenoxybenzamine on cognitive function (learning and memory) following TBI. […] Pre-acclimation began on day 24 post-TBI. The training phase began on day 25 post-injury, and the probe trial was conducted on day 30 post-injury.

[5] = tested on: α-1 and α-2 adrenergic receptors; conditions: with secondary α-2 antagonism; cited from earlier work
[6] = tested on: α-1 receptors; conditions: 8 days after a single administration; cited from earlier work
[7] = tested on: α-1 and α-2 adrenergic receptors; conditions: following intravenous administration; cited from earlier work
[8] = stuffy nose, mild drowsiness, blurred vision, and upset stomach; cited from earlier work
[9] = molecular target: calmodulin (CaM)/CaMKII (Homo sapiens, UniProt P0DP23); conditions: cited from earlier work
[10] = tested on: CCL2; assay: Gene array analysis of cortical tissue after severe TBI: CCL2; conditions: 32 hours after the injury (treatment at 8 hours + 24 hours); versus uninjured controls
Description: (§2) For experiments requiring TBI, a rat model was used. Male Wistar rats (350-500 g) were obtained from Charles River Laboratories (Wilmington, Mass.) and housed with a 12-hour light/dark cycle and ad libitum access to food and water. Severe TBI was induced using the lateral fluid percussion (LFP) procedure as previously described (Rau et al., 2012, J Trauma and Acute Care Surgery 73:S165). Briefly, a 5 mm trephination was made over the right hemisphere equidistant from the lambda and the bregma. Animals were given a fluid pulse to the brain at 1.9-2.3 atm of pressure for 20 msec. All animals experienced apnea and were manually ventilated until normal breathing occurred. […] Saline treated animals underwent the same tail vein injection procedure receiving only pre-warmed saline.
(§3) This time point was chosen in an effort to detect possible gene changes that would affect the development of secondary damage.

[11] = tested on: IL-1β; assay: Gene array analysis of cortical tissue after severe TBI: IL-1β; conditions: 32 hours after the injury (treatment at 8 hours + 24 hours); versus uninjured controls
Description: as §2, §3

[12] = tested on: MyD88; assay: Gene array analysis of cortical tissue after severe TBI: MyD88; conditions: 32 hours after the injury (treatment at 8 hours + 24 hours); versus uninjured controls
Description: as §2, §3

[13] = 1 mg/kg body weight, over 30 days after TBI
[14] = 1 mg/kg i.v. 8 hours after severe TBI, 24 hours or 7 days after the TBI
[15] = administered 8 hours after TBI, probe trial day 30 post-injury

Compound: CC(COc1ccccc1)N(CCCl)Cc1ccccc1 (stereo not shown) [phenoxybenzamine]
- prevention of neuronal death from OGD (propidium iodide fluorescence) ([1]; 100 μM added at 2, 4, and 8 hours post-OGD): prevented neuronal death from OGD in all regions of the hippocampus
- prevention of neuronal death from OGD (propidium iodide fluorescence) ([1]; 100 μM added at 16 hours post-OGD): prevented neuronal death only in the CA1 region of the hippocampus
- neuroprotection when delivered after OGD (FIG. 2) ([1]; delivered up to 16 hours after OGD): significant neuroprotection
- behavioral function, neurological severity score (FIG. 3A) [2, 13]: significantly improved behavioral function
- NSS, difference from saline treated animals [2, 14]: no significant differences
- behavioral function, foot fault assessments (FIG. 3B) [3, 13]: significantly improved behavioral function
- foot fault scoring, difference from saline treated animals [3, 14]: no significant differences
- learning and memory after severe TBI (FIG. 4) ([4]; Morris water maze latency and target quadrant time): significantly improved learning and memory
- MWM learning compared to un-injured sham controls ([4]; administered 8 hours after TBI, any of the training days): not significantly different from the un-injured sham control animals
- MWM probe trial compared to un-injured sham controls [4, 15]: did not differ from un-injured sham controls
- MWM probe trial, time spent searching the target quadrant [4, 15]: approximately 28%
- α-1 adrenergic antagonism [5]: potent α-1 adrenergic antagonist
- α-1 receptors recovered [6]: 50%
- time to peak effect of receptor antagonism [7]: approximately 1 hour
- side effects [8]: minimal
- inhibition of CaM/CaMKII activity [9]: potent inhibitor
- CCL2 expression in cortical tissue after severe TBI [10]: no significant increase; also recorded: did not differ from uninjured controls
- IL-1β expression in cortical tissue after severe TBI [11]: no significant increase; also recorded: did not differ from uninjured controls; also recorded: did not have a significant increase
- MyD88 expression in cortical tissue after severe TBI [12]: no significant increase; also recorded: did not differ from uninjured controls; also recorded: equivalent to uninjured controls
